Earlier results as cited in patent US20240325295A1, “AQUEOUS BUMETANIDE-CONTAINING LIQUID” (DriPel B.V., priority 2021, published 2024).
In brackets after ≈: the same amount, converted by molar mass.

How the values were obtained:
[1] = at 4° C.
[2] = at 25° C.

solubility in glycofurol ([1]; glycofurol): 167 mg/mL (≈ 458 mM) | solubility in polyethylene glycol 200 ([1]; polyethylene glycol 200): 143 mg/mL (≈ 392 mM) | water solubility [2]: 0.026 mg/mL (≈ 0.0713 mM)
Compound: CCCCNc1cc(C(=O)O)cc(S(N)(=O)=O)c1Oc1ccccc1 [Bumetanide]
